The values that follow come from PubChem BioAssay (NCI).

Among the test systems are COLO 205 colon; HS 578T breast; KM12 colon; MALME-3M melanoma; NCI-H226 lung; OVCAR-3 ovarian; OVCAR-8 ovarian; SF-268 CNS; SK-MEL-2 melanoma; UACC-257 melanoma.
Holding throughout (assay): DTP human tumour cell line panel, 48 h

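Cultured in 96-well plates, cells were exposed to test compound for 48 hours across five concentrations. GI50: concentration for 50% inhibition of growth. TGI denotes the concentration required for complete inhibition of growth.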

By GI50 is commonly meant the concentration that inhibits growth by half. The TGI is the concentration at which net growth stops. The low end stands for greater sensitivity of the cells, the high end for lower sensitivity of the cells. `CCCCCCCCCCCC(c1ccccc1)[N+](C)(C)C` (stereo not given): the GI50 with COLO 205 colon was 0.825 µM; in the experiment on HS 578T breast, 1.16 µM; in the experiment on KM12 colon it was 0.511 µM; with MALME-3M melanoma it was 1.29 µM; in the experiment with NCI-H226 lung it was 1.97 µM; in the experiment on OVCAR-3 ovarian it was 0.815 µM. The GI50 in the experiment on OVCAR-8 ovarian was 1.18 µM; in the experiment on SF-268 CNS, 1.26 µM; with SK-MEL-2 melanoma it was 1.51 µM; with UACC-257 melanoma, 1.37 µM. Also, the TGI amounted to 2.2 µM with COLO 205 colon; 3.28 µM in the experiment with HS 578T breast; 1.78 µM in the experiment with KM12 colon; 2.91 µM with MALME-3M melanoma; 7.22 µM in the experiment on NCI-H226 lung; 2.35 µM in the experiment with OVCAR-3 ovarian. The TGI was found to be 3.06 µM with OVCAR-8 ovarian, 2.61 µM with SF-268 CNS, 3.06 µM with SK-MEL-2 melanoma and 2.98 µM in the experiment on UACC-257 melanoma.

Consider `O=C(O)CN(CCN(CC(=O)O)CC(=O)O)CCN(CC(=O)O)CC(=O)O`, for which the GI50 in the experiment with COLO 205 colon is 4.55 µM; with HS 578T breast, 2.09 µM; in the experiment with KM12 colon, 4.94 µM; in the experiment on NCI-H226 lung, 4.65 µM; with OVCAR-3 ovarian it was 3.51 µM; with OVCAR-8 ovarian it was 3.19 µM. In addition, the values for the GI50 in the experiment with SF-268 CNS, in the experiment with SK-MEL-2 melanoma and in the experiment with UACC-257 melanoma were 3.04 µM, 3.16 µM and 4.35 µM, respectively. Moreover, the TGI in the experiment on COLO 205 colon was determined as 16.5 µM; in the experiment with HS 578T breast it was 56.7 µM; in the experiment on KM12 colon it was 37.6 µM; with NCI-H226 lung, 16.5 µM; with OVCAR-3 ovarian, 9.84 µM; in the experiment with OVCAR-8 ovarian, 14.8 µM. Also, the TGI came to 10.8 µM in the experiment with SF-268 CNS, 9.8 µM in the experiment on SK-MEL-2 melanoma and 18.8 µM in the experiment with UACC-257 melanoma.

As for `O=C(c1ccccc1)c1nc2ccc(Cl)cc2cc1C(Br)Br`, the TGI in the experiment with COLO 205 colon amounted to 1.6 µM; in the experiment on HS 578T breast it was 0.59 µM; in the experiment with KM12 colon, 1.06 µM; in the experiment on MALME-3M melanoma it was 5.43 µM; in the experiment on NCI-H226 lung, 3.26 µM; in the experiment with OVCAR-3 ovarian, 0.856 µM. Also, the TGI came to 1.32 µM in the experiment with OVCAR-8 ovarian, 0.972 µM in the experiment on SF-268 CNS, 1.88 µM in the experiment with SK-MEL-2 melanoma and 1.54 µM with UACC-257 melanoma.

As to `CCN(CC)CCN1C(=O)C2C3C(C)=CC(OC(C)=O)(CC3C)C2C1=O` (stereo not given), the GI50 was over 100 µM in the experiment with COLO 205 colon; 75.3 µM in the experiment on HS 578T breast; over 100 µM in the experiment with KM12 colon; over 100 µM in the experiment on MALME-3M melanoma; over 100 µM in the experiment with NCI-H226 lung; over 100 µM with OVCAR-8 ovarian. In addition, the GI50 in the experiment on SF-268 CNS, with SK-MEL-2 melanoma and with UACC-257 melanoma was over 100 µM throughout. Moreover, the TGI in the experiment with COLO 205 colon, with HS 578T breast, in the experiment on KM12 colon, with MALME-3M melanoma, in the experiment on NCI-H226 lung and in the experiment on OVCAR-8 ovarian was over 100 µM each time. For the same molecule, the TGI in the experiment with SF-268 CNS, in the experiment on SK-MEL-2 melanoma and in the experiment with UACC-257 melanoma was over 100 µM throughout.

As to `O=c1[nH]c(=O)n(Cc2ccc(C34CC5CC(CC(C5)C3)C4)c(O)c2)cc1F`, the GI50 with COLO 205 colon was 17.2 µM; in the experiment on HS 578T breast, 15 µM; with KM12 colon it was 12.1 µM; in the experiment with MALME-3M melanoma, 14.6 µM; in the experiment with NCI-H226 lung, 16.7 µM; in the experiment on OVCAR-3 ovarian, 3.74 µM. Besides, the figures for the GI50 in the experiment with SF-268 CNS and in the experiment on SK-MEL-2 melanoma were 18.5 µM and 15.8 µM, respectively. In addition, the TGI in the experiment on COLO 205 colon was found to be 37.9 µM; with HS 578T breast, 41.7 µM; in the experiment on KM12 colon it was 28.5 µM; in the experiment on MALME-3M melanoma, 30.9 µM; in the experiment on NCI-H226 lung, 32.6 µM; in the experiment on OVCAR-3 ovarian, 17.8 µM. In addition, the TGI with SF-268 CNS came to 65.6 µM; in the experiment on SK-MEL-2 melanoma, 39.4 µM.

As for `Cc1cc[c]([Sb]2[O]C(CO)C(C(O)C(O)C(=O)O)[O]2)cc1` (stereo not given), the GI50 with HS 578T breast is 87.7 µM; in the experiment with KM12 colon, 46.7 µM; with MALME-3M melanoma, over 100 µM; in the experiment on NCI-H226 lung, 39.9 µM; with OVCAR-3 ovarian, over 100 µM; in the experiment on OVCAR-8 ovarian, over 100 µM. Besides, the figures for the GI50 with SF-268 CNS and in the experiment with SK-MEL-2 melanoma were over 100 µM and 21.4 µM, respectively. Further, the TGI in the experiment with HS 578T breast, in the experiment with KM12 colon, in the experiment with MALME-3M melanoma, in the experiment with NCI-H226 lung, with OVCAR-3 ovarian and in the experiment with OVCAR-8 ovarian was over 100 µM each time. Further, the figures for the TGI in the experiment on SF-268 CNS and with SK-MEL-2 melanoma were over 100 µM and 45.5 µM, respectively.

For the molecule `C/C(=C1\C(=O)Nc2ccccc21)c1cccc(/C(C)=C2/C(=O)Nc3ccccc32)n1`, the GI50 in the experiment on COLO 205 colon was 7.32 µM; in the experiment with HS 578T breast, 4.1 µM; in the experiment on NCI-H226 lung it was 4.53 µM; in the experiment on OVCAR-3 ovarian it was 4.52 µM; in the experiment on OVCAR-8 ovarian it was 6.39 µM; with SF-268 CNS, 7.42 µM. For the same molecule, the GI50 in the experiment on SK-MEL-2 melanoma was 63.4 µM; with UACC-257 melanoma it was 9.43 µM. In addition, the TGI with COLO 205 colon was over 100 µM; in the experiment with HS 578T breast, over 100 µM; in the experiment with NCI-H226 lung, 24.5 µM; with OVCAR-3 ovarian it was 28.2 µM; with OVCAR-8 ovarian, 76.8 µM; with SF-268 CNS, 71.8 µM. Further, the TGI in the experiment on SK-MEL-2 melanoma was over 100 µM; in the experiment with UACC-257 melanoma, 86 µM.

As for `C=CCn1c(SCC(=O)Nc2ccc(C(=O)/C=C/c3cc(OC)c(OC)c(OC)c3)cc2)nnc1-c1cc(OC)c(OC)c(OC)c1`, the GI50 with COLO 205 colon is 4.94 µM; with HS 578T breast it was 4.66 µM; with KM12 colon, 2.82 µM; in the experiment with MALME-3M melanoma, 11.1 µM; with OVCAR-3 ovarian it was 2.98 µM; in the experiment with OVCAR-8 ovarian, 5.94 µM. Moreover, the results for the GI50 in the experiment on SF-268 CNS, with SK-MEL-2 melanoma and with UACC-257 melanoma were 3.99 µM, 14.8 µM and 7.45 µM, respectively. Besides, the total growth inhibition concentration (TGI) in the experiment on COLO 205 colon is 24.7 µM; in the experiment on HS 578T breast it was over 100 µM; with KM12 colon, 8.18 µM; in the experiment on MALME-3M melanoma, 64.4 µM; with OVCAR-3 ovarian it was 8.46 µM; in the experiment on OVCAR-8 ovarian, 34.9 µM. Further, the TGI with SF-268 CNS turned out to be 64.6 µM; with SK-MEL-2 melanoma, 45.3 µM; in the experiment on UACC-257 melanoma, 36 µM.

With `COc1ccc(-c2nn3ncccc3c2-c2ccnc(Nc3ccc(F)c(F)c3)n2)cc1`, the GI50 is 15.5 µM with COLO 205 colon; 9.2 µM in the experiment with HS 578T breast; 9.45 µM in the experiment with KM12 colon; 11.3 µM with MALME-3M melanoma; 13.9 µM in the experiment on NCI-H226 lung; 11.8 µM in the experiment with OVCAR-3 ovarian. For the same molecule, the GI50 in the experiment with OVCAR-8 ovarian is 11.2 µM; in the experiment on SF-268 CNS it was 14.2 µM; in the experiment with UACC-257 melanoma it was 12 µM. Besides, the TGI with COLO 205 colon, in the experiment with HS 578T breast, in the experiment with KM12 colon, in the experiment with MALME-3M melanoma, in the experiment on NCI-H226 lung and with OVCAR-3 ovarian was over 25 µM each time. For the same molecule, the TGI with OVCAR-8 ovarian, in the experiment with SF-268 CNS and in the experiment on UACC-257 melanoma was over 25 µM throughout.

In the case of `O=C(O)c1c2c(c(O)c3c1CN(C1CCCCC1)CO3)OCN(C1CCCCC1)C2`, the concentration for total growth inhibition (TGI) in the experiment with COLO 205 colon, in the experiment on HS 578T breast, in the experiment with KM12 colon, in the experiment on MALME-3M melanoma, with OVCAR-3 ovarian and in the experiment on OVCAR-8 ovarian was over 100 µM in each case. Besides, the TGI with SF-268 CNS, in the experiment on SK-MEL-2 melanoma and in the experiment with UACC-257 melanoma was over 100 µM in each case.

`OC(c1ccccc1)c1c(-c2ccccc2)[nH]c(-c2ccccc2)c1C(O)c1ccccc1` (stereo not given): the TGI in the experiment with COLO 205 colon stood at 3.15 µM; with HS 578T breast it was 18.9 µM; in the experiment on KM12 colon, 6.09 µM; in the experiment on MALME-3M melanoma it was 7.17 µM; with NCI-H226 lung, 7.32 µM; in the experiment with OVCAR-3 ovarian it was 8.33 µM. For the same molecule, the TGI with SF-268 CNS came out at 23 µM; in the experiment with SK-MEL-2 melanoma, 5.18 µM; in the experiment on UACC-257 melanoma, 8.61 µM.

Take `COc1cccc2c1C(=O)c1c(O)c3c(c(O)c1C2=O)C[C@@](O)(/C(C)=N/NC(=O)c1cccc([N+](=O)[O-])c1)C[C@@H]3OC1CC(N)C(O)C(C)O1` (stereo not given in full): the GI50 with COLO 205 colon was 0.208 µM; with HS 578T breast, 0.561 µM; in the experiment on KM12 colon, 0.404 µM; in the experiment on NCI-H226 lung it was 0.16 µM; in the experiment on OVCAR-3 ovarian, 0.396 µM; in the experiment on OVCAR-8 ovarian, 0.366 µM. The GI50 in the experiment with SF-268 CNS is 0.269 µM; in the experiment with SK-MEL-2 melanoma, 0.996 µM; in the experiment on UACC-257 melanoma, 0.757 µM. For the same molecule, the TGI in the experiment with COLO 205 colon was 1.5 µM; in the experiment with HS 578T breast, 5.5 µM; with KM12 colon, 10.9 µM; in the experiment on NCI-H226 lung, 0.714 µM; in the experiment on OVCAR-3 ovarian, 5.26 µM; with OVCAR-8 ovarian, 21 µM. Moreover, the values for the TGI in the experiment with SF-268 CNS, with SK-MEL-2 melanoma and in the experiment on UACC-257 melanoma were 2.26 µM, 3.23 µM and 3.43 µM, respectively.

As for `O=c1oc2ccccc2cc1P(=O)(O)O`, the TGI in the experiment with COLO 205 colon, in the experiment with HS 578T breast, in the experiment on MALME-3M melanoma, in the experiment on NCI-H226 lung, with OVCAR-3 ovarian and in the experiment with OVCAR-8 ovarian was over 100 µM throughout. The TGI in the experiment with SF-268 CNS, in the experiment with SK-MEL-2 melanoma and with UACC-257 melanoma was over 100 µM each time.
